Measured values taken from patent US6894073B2, “Use of diterpene compound as a therapeutic agent of inflammation, immune disease or cancer” (Korea Research Institute of Bioscience and Biotechnology, priority 2000, dated 2005).

Tests used:
prostaglandin E2 = experiment: Inhibition of prostaglandin E2 production in LPS-stimulated Raw 264.7 cells (enzyme immunometric assay); assay type: cell-based, murine; conditions: for PGE2: 1 μg/ml LPS, 16 hours; for inhibition at 0.03 µg/mL / inhibition at 0.3 µg/mL / inhibition at 3 µg/mL / IC50: Mus musculus, RAW264.7; for inhibition at 0.03 µg/mL / inhibition at 0.3 µg/mL / inhibition at 3 µg/mL: read-out: Inhibition rate (%) of prostaglandin E2 production; for IC50: LPS-stimulated Raw 264.7 cells
Description: (§1) To investigate whether kaurane diterpene compounds obtained in Example 1 can inhibit the production of prostaglandin, which induces inflammatory reaction, the present inventors measured the amount of prostaglandin E2 accumulated in the culture medium of LPS-stimulated murine macrophage cells, which were treated with four kaurane diterpene compounds, kamebanin, kamebacetal A, kamebakaurin, or exisanin A.
In detail, Raw 264.7 cells in DMEM medium were seeded to a 96-well plate at a cell density of 1×10^5 cells/well and were incubated for 18 hours. Cyclooxygenase-1, the constitutive rate-determining enzyme of the prostaglandin synthesis was inactivated by incubating for 3 hrs with 500 μM of aspirin and each well was washed two times with PBS (phosphate-buffered saline). To each well were added 1 μg/ml of LPS and 3 μg/ml, 0.3 μg/ml, and 0.03 μg/ml concentrations of kaurane diterpene compounds of the present invention and was incubated for 16 hours. After collecting supernatant by centrifugation, the amount of prostaglandin in the culture medium was quantified by enzyme immunometric assay.

NF-κB = NF-κB activation, SEAP reporter in LPS-stimulated RAW-NF-AP cells; assay type: cell-based, murine; conditions: for inhibition at 0.03 µg/mL / inhibition at 0.3 µg/mL / inhibition at 3 µg/mL / IC50: Mus musculus; for inhibition at 0.03 µg/mL: 0.03 μg/ml compound; for inhibition at 0.03 µg/mL / inhibition at 0.3 µg/mL / inhibition at 3 µg/mL: 1 μg/ml LPS, 16 hours; for inhibition at 0.3 µg/mL: 0.3 μg/ml compound; for inhibition at 3 µg/mL: 3 μg/ml compound; for IC50: RAW-NF-AP cells, LPS
Description: RAW-NF-AP cells, which can be used effectively to detect the NF-κB dependent expression of reporter gene, (Korean Patent Application No. 1999-0006025), were seeded to a 96-well plate at a cell density of 1×10^5 cell/well and were incubated for 3 hours at 37° C. in a 5% CO2 incubator. Thereafter, 1 μg/ml concentration of LPS and 0.03 μg/ml, 0.3 μg/ml, and 3 μg/ml concentrations of kaurane diterpene compounds of the present invention were added to each well and was incubated for 16 hours. After collecting supernatant by centrifugation, the amount of secreted alkaline phosphatase (SEAP) in the culture medium of which expression is regulated by the activation of NF-κB was quantified.

nitric oxide (NO) = experiment: Inhibition of NO production (nitrite, Griess reagent) in LPS-stimulated Raw 264.7 macrophage cells; assay type: cell-based, murine; conditions: for NO: 1 μg/ml LPS, 24 hours; for inhibition at 0.03 µg/mL / inhibition at 0.3 µg/mL / inhibition at 3 µg/mL: read-out: Inhibition rate (%) of NO production; for IC50: LPS-stimulated Raw 264.7 cells
Description: as §1, with “nitric oxide (NO)” for “prostaglandin,”, “apoptosis of the immune and neuron cells,” for “inflammatory reaction,”, “nitrite (NO2)” for “prostaglandin E2”
In detail, Raw 264.7 murine macrophage cells (ATCC TIB-71) in DMEM medium were seeded to 96-well plate at a cell density of 1×10^5 cells/well and incubated for 3 hours at 37° C., 5% CO2 incubator. To induce NO synthesis in the macrophage cell, 1 μg/ml of LPS and 3 μg/ml, 0.3 μg/ml, and 0.03 μg/ml of kaurane diterpene compounds of the present invention were added to the medium and the plate was incubated for 24 hours. The amount of NO2, the final oxidation product of NO induced by the LPS in the medium was measured as followed. After collecting and centrifuging incubated medium, 100 μl of Griess reagent was added into 100 μl of each culture medium. Then, the medium was incubated for ten minutes at room temperature and absorbance at 550 nm wavelength was measured. Griess reagent was prepared by mixing a solution, wherein 1% sulfanilamide was dissolved in 5% phosphoric acid, and a solution of 0.1% naphyhylethylenediamine-HCl by a 1:1 ratio. To measure the amount of standard NO synthesis, NaNO2 was serially diluted and the absorbance was measured after reacting it with Griess reagent. From this, the standard curve for the amount of NO production was obtained. The amount of NO production in the culture medium treated with each compound was estimated using standard curve for NO determination.

adjuvant arthritis model = experiment: Adjuvant arthritis model, paw volume; assay type: in vivo, Sprague-Dawley rat; conditions: day 16-22, paw volume on 23rd day
Description: Finding the inhibitory effect of kaurane diterpene compounds on the production of NO, prostaglandin, and TNF, and on the activation of NF-κB in the murine macrophage cells stimulated by LPS, the present inventors investigated the pharmacological efficacy of kaurane diterpene compounds with a adjuvant arthritis model according to the method of Futaki et al. (General Pharmacology, 1993, 24, 105-110). To prepare animal model of the arthritis, 0.05 ml of 0.1% Mycobacterium butyricum suspended in Freud adjuvant (Sigma, USA) was injected intradermally to the left hind paw of the male Sprague-Dawley rat of 180 g weight. On the fifteenth day after injection, the volume of the right paw of the rats was measured using plethysmometer (Ugo-Basile, Italy), and only the rats having arthritis on the right leg were selected. Thereafter, the selected rats were divided into four groups, six rats per each group. Four kinds of kaurane diterpene compounds of the present invention were administered orally to each groups everyday from the sixteenth day to twenty-second day with doses of 3 mg/kg/day, 10 mg/kg/day, and 20 mg/kg/day in the form of the suspended solution with 0.1% methylcellulose. The inhibition rate of arthritis was calculated by comparing the volume of the paw with that of the control on the 23rd day.

TNF-α = experiment: Inhibition of TNF-α production in LPS-stimulated Raw 264.7 cells (enzyme immunometric assay); assay type: cell-based, murine; conditions: for TNF-α: 1 μg/ml LPS, 16 hours; for inhibition at 0.03 µg/mL / inhibition at 0.3 µg/mL / inhibition at 3 µg/mL / IC50: Mus musculus, RAW264.7; for inhibition at 0.03 µg/mL / inhibition at 0.3 µg/mL / inhibition at 3 µg/mL: read-out: Inhibition rate (%) of TNF-α production; for IC50: LPS-stimulated Raw 264.7 cells
Description: To investigate whether kaurane diterpene compounds obtained in Example 1 can inhibit effectively the production of tumor necrosis factor-α (TNF-α), one of the inflammatory mediator, which confers cytotoxic effect and induces the production of prostaglandin and cytokines, the present inventors measured the amount of TNF-α accumulated in the culture medium of LPS-stimulated murine macrophage cells, which were treated with four kaurane diterpene compounds, kamebanin, kamebacetal A, kamebakaurin, or exisanin A.
In detail, Raw 264.7 cells in DMEM medium were seeded to a 96-well plate at a cell density of 1×10^5 cells/well and were incubated for 3 hours at 37° C. in a 5% CO2 incubator. To each well were added 1 μg/ml of LPS and 3 μg/ml, 0.3 μg/ml, and 0.03 μg/ml concentrations of kaurane diterpene compounds of the present invention and was incubated for 16 hours. After collecting supernatant by centrifugation, the amount of TNF-α in the culture medium was quantified by enzyme immunometric assay.

[1] = Mus musculus, RAW264.7, 0.03 μg/ml compound
[2] = Mus musculus, RAW264.7, 0.3 μg/ml compound
[3] = Mus musculus, RAW264.7, 3 μg/ml compound

Row | Compound | PGE2 (prostaglandin E2; 0.03 μg/ml compound) [ng/mL] | PGE2 (prostaglandin E2; 0.3 μg/ml compound) [ng/mL] | PGE2 (prostaglandin E2; 3 μg/ml compound) [ng/mL] | inhibition at 0.03 µg/mL (prostaglandin E2; 0.03 μg/ml compound) [%] | inhibition at 0.3 µg/mL (prostaglandin E2; 0.3 μg/ml compound) [%] | inhibition at 3 µg/mL (prostaglandin E2; 3 μg/ml compound) [%] | IC50 (prostaglandin E2) [µM] | inhibition at 0.03 µg/mL (NF-κB) [%] | inhibition at 0.3 µg/mL (NF-κB) [%] | inhibition at 3 µg/mL (NF-κB) [%] | IC50 (NF-κB) [µM] | NO (nitric oxide (NO); 0.03 μg/ml compound) [µM] | NO (nitric oxide (NO); 0.3 μg/ml compound) [µM] | NO (nitric oxide (NO); 3 μg/ml compound) [µM] | inhibition at 0.03 µg/mL (nitric oxide (NO); [1]) [%] | inhibition at 0.3 µg/mL (nitric oxide (NO); [2]) [%] | inhibition at 3 µg/mL (nitric oxide (NO); [3]) [%] | IC50 (nitric oxide (NO); Mus musculus, RAW264.7) [µM] | Inhibition rate (%) of arthritis (adjuvant arthritis model; 3 mg/kg/day oral) [%] | Inhibition rate (%) of arthritis (adjuvant arthritis model; 10 mg/kg/day oral) [%] | further results
1 | C=C1C(=O)[C@@]23[C@H](O)C[C@@H]4C(C)(C)CC[C@H](O)[C@@]4(C)[C@@H]2CC[C@@H]1[C@H]3O [Kamebanin, kamebanin] | 14.4 ± 2.2 | 4.0 ± 0.3 | 0.7 ± 0.1 | -22.5 | 73.9 | 104 | 0.88 | 0.6 | 48.5 | 99.7 | 0.72 | 23.4 ± 1.3 | 4.6 ± 0.6 | 3.6 ± 0.3 | 56.5 | 97.2 | 99.3 | 0.06 | 30 ± 15 | 50 ± 12 | Prostaglandin production compared with negative control (no LPS) (prostaglandin E2; 3 μg/ml): nearly the same as that of the negative control; Inhibition rate (%) of arthritis (adjuvant arthritis model; 20 mg/kg/day oral): 68 ± 14%; TNF-α (TNF-α; 0.03 μg/ml compound): 1835.0 ± 158.8 pg/mL; TNF-α (TNF-α; 0.3 μg/ml compound): 805.6 ± 195.4 pg/mL; TNF-α (TNF-α; 3 μg/ml compound): 19.8 ± 0.7 pg/mL; inhibition at 0.03 µg/mL (TNF-α; 0.03 μg/ml compound): -10%; inhibition at 0.3 µg/mL (TNF-α; 0.3 μg/ml compound): 52.3%; inhibition at 3 µg/mL (TNF-α; 3 μg/ml compound): 99.8%; IC50 (TNF-α): 1 µM
2 | C=C1C(=O)[C@@]23C4CC5C(C)(C)CC[C@H](O)[C@@]5(C(OC)O4)C2CC[C@@H]1[C@H]3O (stereo partly shown) [Kamebacetal A, kamebacetal A] | 13.2 ± 0.8 | 9.8 ± 1.4 | 2.7 ± 0.4 | -11.3 | 19.6 | 85.6 | 2.8 | 1.3 | 62.2 | 110 | 2.45 | 38.5 ± 4.8 | 19.9 ± 3.7 | 3.3 ± 0.7 | 23.9 | 64.2 | 100 | 0.584 | 33 ± 18 | 55 ± 10 | SEAP activity compared with negative control (no LPS) (NF-κB; 3 μg/ml): to the extent of negative control; NO production compared with negative control (no LPS) (nitric oxide (NO); 3 μg/ml): nearly the same as that of the negative control; IC50 (nitric oxide (NO)): 0.58 µM; Inhibition rate (%) of arthritis (adjuvant arthritis model; 20 mg/kg/day oral): 69 ± 14%; TNF-α (TNF-α; 0.03 μg/ml compound): 1495.0 ± 239.7 pg/mL; TNF-α (TNF-α; 0.3 μg/ml compound): 691.4 ± 152.7 pg/mL; TNF-α (TNF-α; 3 μg/ml compound): 38.9 ± 1.0 pg/mL; inhibition at 0.03 µg/mL (TNF-α; 0.03 μg/ml compound): 10.5%; inhibition at 0.3 µg/mL (TNF-α; 0.3 μg/ml compound): 59.2%; inhibition at 3 µg/mL (TNF-α; 3 μg/ml compound): 98.7%; IC50 (TNF-α): 0.6 µM
3 | C=C1C(=O)[C@@]23C(C[C@H](O)[C@@H]1[C@H]2O)[C@@]1(C)C(C[C@H]3O)C(C)(C)CC[C@@H]1O (stereo partly shown) [Exisanin A, exisanin A] | 13.7 ± 0.3 | 10.7 ± 1.3 | 5.7 ± 0.7 | -16.1 | 11.7 | 57.7 | 5.37 | -2.6 | 19.4 | 93.7 | 1.66 | 32.5 ± 3.5 | 22.2 ± 2.3 | 6.7 ± 0.8 | 37 | 59.3 | 92.5 | 0.35 | 33 ± 14 | 52 ± 12 | Inhibition rate (%) of arthritis (adjuvant arthritis model; 20 mg/kg/day oral): 64 ± 13%; TNF-α (TNF-α; 0.03 μg/ml compound): 1243.0 ± 195.6 pg/mL; TNF-α (TNF-α; 0.3 μg/ml compound): 936.1 ± 0.00 pg/mL; TNF-α (TNF-α; 3 μg/ml compound): 103.2 ± 12.8 pg/mL; inhibition at 0.03 µg/mL (TNF-α; 0.03 μg/ml compound): 25.8%; inhibition at 0.3 µg/mL (TNF-α; 0.3 μg/ml compound): 44.4%; inhibition at 3 µg/mL (TNF-α; 3 μg/ml compound): 94.8%; IC50 (TNF-α): 0.61 µM
